≈ marks a conversion by molar mass, not a printed value. Read-outs that look alike come from different tables or passages of the source. Where only a bound is given, the exact number is not on record here.

Test [1] relates to fibroblast to myofibroblast transdifferentiation (primary human lung fibroblasts and primary rodent HSCs). Briefly: High content imaging and western based assay of fibroblast to myofibroblast transdifferentiation (α-SMA). Type of test: cell-based. To be noted: graded, TGF-β induced fibroblast to myofibroblast transdifferentiation. The text has this:
A high content imaging assay, based on α-SMA staining and cell morphological changes associated with fibroblast to myofibroblast transdifferentiation, was established using primary human lung fibroblasts and primary rodent HSCs. Conditions, involving serum starvation and subsequent TGF-β treatment, were identified that facilitate robust in vitro transdifferentiation in a miniaturized (384 well plate) format that is amenable to high throughput small molecule screening. A selective ALK-5 TGF-β1 receptor inhibitor (SB-431542) was used as a positive control. […] This assay was used to identify a hit compound (itraconazole) and was used to evaluate focused panels of itraconazole analogues generated from medicinal chemistry efforts.
The activity of Itraconazole and its analogues was confirmed by analyzing changes in gene expression of multiple genes associated with fibroblast to myofibroblast transdifferentiation using biochemical methods (i.e., Western blot and RT-PCR). These 4-day assays were used to evaluate sets of 6 compounds at a time in 4-point dose response fashion.
After 24 hour incubation, cells were treated with the indicated doses of itraconazole for 48 hours in the presence of 10 ng/mL of TGF-β1 in hepatic stellate medium. Following fixation and staining with an anti smooth muscle actin antibody, cell morphology was analyzed with a Cellomics cell insight imaging reader (FIG. 1 for representative images). Cells were analyzed for mean cellular area of a-SMA staining (FIG. 5a) or mean fluorescence intensity of SMA staining (FIG. 5b).
After 24 incubation, medium was changed to assay medium containing TGF-β1 (10 ng/mL) and simultaneously treated with itraconazole (10 μM), SB431542 (10 μM) or vehicle control (FIG. 6).

The test system of test [2] is Candida albicans (ATCC 10231). Briefly: Candida albicans anti-fungal MIC potency determination. Type of test: cell-based. How it is done:
The wild type Candida albicans (ATCC 10231) was used and Fluconazole, amphotericin B, itraconazole and terbinafine were purchased from Sigma and used as positive controls.
The highest assay concentration for all test compounds and fluconazole was 100 μM. Fluconazole was also tested at the highest concentration of 64 μg/ml, and amphotercin B and terbinafine at 16 and 64 μg/ml. The test compounds were in DMSO stock solution at a concentration of 10 mM. Two stock solutions in DMSO were prepared for fluconazole at 10 mM and 6.4 mg/ml. Amphotericin B and terbinafine stock solutions in DMSO were prepared at 1.6 and 6.4 mg/ml.
Serial dilution of 100× stock solutions: 4 μl of stock solution was added into 196 μl of RPMI1640 (MOPS buffered and free of HEPES and sodium bicarbonate) in the first well of a row of a sterile u-bottom 96-well plate. The rest of the wells was filled with 100 μl RPMI1640. The 2-fold serial dilution was made sequentially by transferring 100 μl solution to the next well and mixing by pipetting, until 11th well. The extra 100 μl in 11th well was discarded. Therefore, the compound wells contained 100 μl of 2× of testing concentrations of drugs in RPMI1640. The 12th well was filled with only 100 μl RPMI1640.
C. albicans 3147 (ATCC 10231) glycerol frozen stock was streaked on Sabouraud dextrose agar (SDA). The plate was incubated at 35° C. ambient atmosphere for 20 h. Single colonies were suspended into sterile saline until turbidity reached 0.1 (1-5×10^6 CFU/ml) using a Siemens turbidity meter. This suspension was diluted 50× in RPMI1640 in a 15 ml conical, and then it was further diluted 20× in RPMI1640 in a 50 ml conical. This gave 1-5×10^3 CFU/ml suspension and was used as inoculum. The cell density in inoculum was plate-counted to be 4.94×10^3 CFU/ml.
The plates were incubated at 35° C. in ambient atmosphere. The photos were taken at 24 h and 48 h. The MIC end points for fluconazole and amphotericin B were read according to the M27-A3 protocol (Reference Method for Broth Dilution Antifungal Susceptibility Testing of Yeasts; Approved Standard-Third Edition, M27-A3 standard published Jan. 1, 2008 by Clinical and Laboratory Standards Institute). The MIC for compounds for test cmpds and terbinafine (not mentioned in M27-A3 protcol) were read as if they were azoles.

Another test concerns the target Cyp3A4 (Homo sapiens, UniProt P08684). Briefly: Cyp reversible inhibition assay (human liver microsomes). How it is done:
The purpose of this assay was to determine reversible inhibition of Cyp enzyme with a given compound using a substrate probe turnover as the surrogate for inhibition. This was done with human liver microsomes rather an isolated enzyme to account for metabolites of parent drug leading to a potential drug-drug interaction through Cyp inhibition. The substrate turnover (for example conversion of midazolam to hydroxyl midazolam) was monitored by LCMSMS (Q1/Q2=342.2/203.2). Test compounds were tested in a 7-point dose response curve starting from 50 μM to 50 nM (˜3-fold dilution series).
The detailed protocol was as follows: • Prepared test compounds and standard inhibitors working solution (100×) • Pulled microsomes out of the −80° C. freezer to thaw on ice, labeled with the date and put back to freezer immediately after using. • Added 20 μL of the substrate solutions to corresponding wells. • Added 20 μL PB to Blank wells. • Added 2 μL of the test compounds and positive control working solution to corresponding wells. • Added 2 μL MeOH to No Inhibitor wells and Blank wells. • Prepared HLM working solution. • Added 158 μL of the HLM working solution to all wells of incubation plate. • Pre-warmed the plate for about 10 min at 37° C. water bath. • Prepared NADPH cofactor solution. • Added 20 μL NADPH cofactor to all incubation wells. • Mixed and incubated for 10 minutes at 37° C. water bath. • At the time point, terminated the reaction by adding 400 μL cold stop solution (200 ng/mL Tolbutamide in ACN). • Centrifuged the samples at 4000 rpm for 20 minutes to precipitate protein. • Transferred 200 μL supernatant to 200 μL HPLC water and shook for 10 min. • Analyzed samples by LC/MS/MS.
A general note: Liver microsomes are vesicles of endoplasmic reticulum, rich in cytochrome P450 enzymes.

Setting [3] is: ATCC10231, 24 h, read-out: C. Albicans MIC90 at 24 h.
Setting [4] is: ATCC10231, 48 h, read-out: C. Albicans MIC90 at 48 h.
Where [5] appears, read: Cyp 3A4 midazolam LCMS IC50, human liver microsomes, substrate midazolam.
Where [6] appears, read: Cyp 3A4 testosterone LCMS IC50, human liver microsomes, substrate testosterone.

Sequence of Cyp3A4 (P08684 whole entry): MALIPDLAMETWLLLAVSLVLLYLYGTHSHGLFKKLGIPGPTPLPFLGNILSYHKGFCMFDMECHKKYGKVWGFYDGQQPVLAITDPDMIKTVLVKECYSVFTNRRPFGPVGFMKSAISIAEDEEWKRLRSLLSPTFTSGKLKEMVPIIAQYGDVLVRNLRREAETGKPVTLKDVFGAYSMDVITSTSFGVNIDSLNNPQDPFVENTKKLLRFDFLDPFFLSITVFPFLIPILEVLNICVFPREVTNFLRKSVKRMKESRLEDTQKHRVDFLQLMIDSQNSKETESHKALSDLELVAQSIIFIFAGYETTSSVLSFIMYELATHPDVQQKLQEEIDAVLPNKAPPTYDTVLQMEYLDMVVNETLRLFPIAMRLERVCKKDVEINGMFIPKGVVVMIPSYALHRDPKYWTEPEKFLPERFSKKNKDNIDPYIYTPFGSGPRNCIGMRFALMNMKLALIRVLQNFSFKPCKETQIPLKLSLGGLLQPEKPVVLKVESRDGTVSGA

Molecule `CCC(C)n1ncn(-c2ccc(N3CCN(c4ccc(OC[C@@H]5CO[C@@](Cc6ccncc6)(c6ccc(Cl)cc6Cl)O5)cc4)CC3)cc2)c1=O` (stereo partly shown) [Compound 23] came in with an EC50 in test [1] below 0.5 µM. Further, the MIC90 in test [2] (setting [3]) and in test [2] (setting [4]) was above 100 µM in each case. Further, it took 0.321 µM to reach half-maximal inhibition on Cyp3A4 (setting [5]) (IC50).

Turning to `CCC(C)n1ncn(-c2ccc(N3CCN(c4ccc(OC[C@@H]5CO[C@@](Cn6nccn6)(c6ccccc6Cl)O5)cc4)CC3)cc2)c1=O` (stereo partly shown) [Compound 32], the EC50 in test [1] fell in the range of 5 to 30 µM. Further, the MIC90 in test [2] (setting [3]) and in test [2] (setting [4]) was above 100 µM throughout. Moreover, the IC50 at Cyp3A4 (setting [5]) and on Cyp3A4 (setting [6]) was above 50 µM in each case.

As to `CCC(C)n1ncn(-c2ccc(N3CCN(c4ccc(OC[C@@H]5CO[C@@](Cn6cccn6)(c6ccc(Cl)cc6Cl)O5)cc4)CC3)cc2)c1=O` (stereo partly shown) [Compound 27], the EC50 in test [1] fell in the range of 5 to 30 µM. The MIC90 in test [2] (setting [3]) and in test [2] (setting [4]) was above 100 µM in each case. In addition, the half-maximal inhibitory concentration (IC50) against Cyp3A4 (setting [5]) and against Cyp3A4 (setting [6]) was above 50 µM in each case.

In turn, `CCC(C)n1ncn(-c2ccc(N3CCN(c4ccc(OC[C@@H]5CO[C@@](Cn6ccnc6)(c6ccc(Cl)cc6Cl)O5)cc4)CC3)cc2)c1=O` (stereo partly shown) [Compound 19] returned an EC50 in test [1] of 0.5 to 5 µM. Moreover, the MIC90 in test [2] (setting [3]) and in test [2] (setting [4]) was 0.195 µM (≈ 0.137 µg/mL) in each case. The values for the IC50 against Cyp3A4 (setting [5]) and at Cyp3A4 (setting [6]) were 0.0031 µM and 0.0069 µM, respectively.

Broadly, the EC50 is the midpoint of the concentration-response curve. Lower therefore signals higher potency in that assay. Usually MIC90 stands for the lowest concentration that inhibits either 90% of growth or 90% of the strains tested, depending on the study. As a reminder, the IC50 is the concentration needed to halve the response being measured. A low value points to greater potency.
